Data on four compounds can be found in US20190083498A1, “THERAPIES FOR HEMATOLOGIC MALIGNANCIES” (GILEAD CALISTOGA LLC, priority 2008, published 2019).

In data set [1] the test system is LB cells. Description: Subcutaneous human MM xenograft model. It counts as in vivo. On the procedure: CB17 SCID mice (48-54 days old) were purchased from Charles River Laboratories (Wilmington, Mass.). All animal studies were conducted according to protocols approved by the Animal Ethics Committee of the Dana-Farber Cancer Institute. Mice were inoculated subcutaneously in the right flank with 3×10^6 LB cells in 100 μL RPMI-1640. When tumors were palpable, mice were assigned into the treatment groups receiving 10 mg/kg or 30 mg/kg gavages twice daily; and 7 mice in the control group receiving vehicle alone. Caliper measurements of the longest perpendicular tumor diameters were performed every alternate day to estimate the tumor volume using the following formula representing the 3D volume of an ellipse: 4/3× (width/2)2× (length/2). Animals were sacrificed when tumors reached 2 cm or the mice appeared moribund. Survival was evaluated from the first day of treatment until death. […] The images were captured with a canon IXY digital 700 camera. Ex vivo analysis of tumor images was captured with a LEICA DM IL microscope and LEICA DFC300 FX camera at 40 u/0.60 (Leica, Heidelberg, Germany).
Mean tumor volume was calculated as in Materials and Methods, FIG. 36A. Error bars represent SD (±).
Tumors harvested from Compound II (30 mg/kg) treated mouse (right panel) and control mouse (left panel) were subjected to immuno-histochemistric analysis using CD31 and P-AKT Abs. CD31 and P-AKT positive cells are dark brown, FIG. 36D.
Survival was evaluated from the first day of treatment until sacrifice using Kaplan-Meier curves, FIG. 36C.
Tumor tissues were harvested from mice treated with control vehicle or Compound II (30 mg/kg). Protein levels of phosphorylated of PDK-1 and AKT (Ser473) were determined by western blotting of cell lysates, FIG. 36E. Actin was used as a loading control.
Background: A xenograft is tissue or cells of one species grown in another, often human tumour cells in immunodeficient mice.

The test system of data set [2] is INA-6 cells. Description: SCID-hu model, INA-6 cells in human bone chip, serum shuIL-6R ELISA. It counts as in vivo, SCID mice. Particulars: 10 or 30 mg/kg daily for 4 weeks. On the procedure:
Human fetal bone grafts were implanted into CB17 SCID-mice (SCID-hu). Four weeks following bone implantation, 2.5×10^6 INA-6 cells were injected directly into the human BM cavity in the graft in a final volume of 100 μl of RPMI-1640 medium. An increase in the levels of soluble human IL-6 receptor (shulL-6R) from INA-6 cells was used as an indicator of MM cell growth and burden of disease in SCID-hu mice. Mice developed measurable serum shulL-6R approximately 4 weeks following INA-6 cell injection, and then received either 10 or 30 mg/kg drug or vehicle alone daily for […]. Blood samples were collected and assessed for shulL-6R levels using an enzyme-linked immunosorbent assay (ELISA, R&D Systems. Minneapolis Minn.).
Growth of INA-6 cells engrafted in human bone chips in SCID mice was monitored by serial serum measurements of shulL-6R. […] Error bars indicate SD (±).
In order to examine the activity of compound II on MM cell growth in the context of the human BM microenvironment in vivo, a SCID-hu model was used in which IL-6 dependent INA-6 cells are directly injected into a human bone chip implanted subcutaneously in SCID-mice. This model recapitulates the human BM microenvironment with human IL-6/BMSC-dependent growth of INA-6 human MM cells. These SCID-hu mice were treated with compound II or vehicle alone daily for 4 weeks, and serum shulL-6R monitored as a marker tumor burden. […]
(In general: In an ELISA, binding on a coated surface is turned into a signal by an enzyme label.)

Data set [3] has as its system INA-6 and LB cells. The data set is described as follows: Growth of MM cells treated with 3-MA. To be noted: up to 100 μM; 24 h. It counts as cell-based, human. As for the experimental part: P110 δ positive LB cells (♦) were treated with 3-MA (0-100 μM) for 24 h. Data represent means (±SD) of triplicate cultures.
The target of data set [4] is class II PI3K CIIbeta (Homo sapiens, UniProt O00750). The data set is described as follows: IC50 profile across kinases, InvitroGen Adapta assay. It counts as biochemical.
Chain of class II PI3K CIIbeta (O00750 whole entry): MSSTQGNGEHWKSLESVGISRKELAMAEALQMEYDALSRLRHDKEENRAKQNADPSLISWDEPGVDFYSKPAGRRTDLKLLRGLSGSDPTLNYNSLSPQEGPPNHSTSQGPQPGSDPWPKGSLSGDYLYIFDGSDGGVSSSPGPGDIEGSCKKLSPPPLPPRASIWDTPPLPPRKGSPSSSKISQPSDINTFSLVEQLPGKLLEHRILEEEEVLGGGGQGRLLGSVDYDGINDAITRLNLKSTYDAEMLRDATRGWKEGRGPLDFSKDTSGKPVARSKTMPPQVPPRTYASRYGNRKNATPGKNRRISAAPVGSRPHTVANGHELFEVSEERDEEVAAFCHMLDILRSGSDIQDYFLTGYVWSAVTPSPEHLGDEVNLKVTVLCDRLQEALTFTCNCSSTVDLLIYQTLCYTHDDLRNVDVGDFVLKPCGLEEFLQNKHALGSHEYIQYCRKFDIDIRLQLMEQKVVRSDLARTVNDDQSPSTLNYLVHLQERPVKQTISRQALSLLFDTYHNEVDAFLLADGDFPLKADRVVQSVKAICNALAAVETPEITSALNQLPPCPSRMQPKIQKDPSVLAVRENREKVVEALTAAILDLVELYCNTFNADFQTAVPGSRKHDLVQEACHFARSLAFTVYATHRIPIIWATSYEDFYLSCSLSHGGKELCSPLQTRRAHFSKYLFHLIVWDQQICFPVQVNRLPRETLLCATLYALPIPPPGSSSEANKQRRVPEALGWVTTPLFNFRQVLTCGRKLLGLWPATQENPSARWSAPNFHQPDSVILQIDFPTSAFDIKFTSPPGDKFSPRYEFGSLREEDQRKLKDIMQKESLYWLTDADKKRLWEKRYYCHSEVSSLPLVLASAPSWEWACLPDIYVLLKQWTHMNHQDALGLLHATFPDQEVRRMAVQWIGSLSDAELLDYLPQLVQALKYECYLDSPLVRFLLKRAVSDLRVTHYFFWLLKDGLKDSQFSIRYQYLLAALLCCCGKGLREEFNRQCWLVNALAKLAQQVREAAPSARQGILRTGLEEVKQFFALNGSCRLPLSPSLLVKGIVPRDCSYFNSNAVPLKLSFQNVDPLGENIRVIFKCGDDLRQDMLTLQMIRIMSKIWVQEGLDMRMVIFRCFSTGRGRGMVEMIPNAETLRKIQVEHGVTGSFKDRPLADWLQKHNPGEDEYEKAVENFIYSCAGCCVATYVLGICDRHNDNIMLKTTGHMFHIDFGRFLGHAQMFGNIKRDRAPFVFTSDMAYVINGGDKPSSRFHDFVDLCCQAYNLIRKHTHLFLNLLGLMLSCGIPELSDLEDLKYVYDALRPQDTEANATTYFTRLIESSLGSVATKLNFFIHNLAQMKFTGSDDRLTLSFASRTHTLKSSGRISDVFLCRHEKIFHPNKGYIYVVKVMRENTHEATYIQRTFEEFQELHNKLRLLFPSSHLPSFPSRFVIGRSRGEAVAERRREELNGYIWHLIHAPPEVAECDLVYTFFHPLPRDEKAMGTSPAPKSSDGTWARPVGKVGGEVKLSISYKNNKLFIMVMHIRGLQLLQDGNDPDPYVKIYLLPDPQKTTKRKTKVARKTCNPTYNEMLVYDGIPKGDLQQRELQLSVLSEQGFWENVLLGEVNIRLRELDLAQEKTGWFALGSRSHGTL
Data set [5] concerns the target Class III PI3K hVPS34 (Homo sapiens, UniProt Q8NEB9). Particulars: read-out: Class III PI3K, IC50 hVPS34; InvitroGen Adapta assay.
Data set [6] relates to CLL cells with or without StromaNKTert. Description: CLL cell viability/apoptosis in stromal co-culture, Annexin V/PI FACS. The format is cell-based, human. To be noted: 100 nM alone; two patients; 24 hours. On the procedure: CLL cell and stromal cell co-cultures: CLL cells were cultured under standardized conditions on stromal cell lines or primary NLC. Briefly, stromal cells were seeded one day prior to each experiment onto 24-well plates (Corning Life Sciences) at a concentration of 3×10^5 cells/mL/well and incubated at 37° C. in 5% CO2. Stromal cell confluence was confirmed by phase contrast microscopy, and CLL cells were then added onto the stromal cell layer at a concentration of 3×10^6 cells/mL. Cultures were then treated with compounds for the specified time periods. CLL cells were removed for analysis by gentle pipetting with media, and were then washed in PBS prior to analysis. A 24-hour co-culture time point was used unless otherwise indicated.
Cell viability testing and reagents: CLL cell viability was determined by analysis of Annexin V-FITC (BD Biosciences, San Diego, Calif.) and Propidium Iodine (PI) (Sigma) by FACS.
To determine whether PI3K inhibition increased the sensitivity of stroma-exposed CLL cells by increasing priming, PB-derived CLL cells cultured with or without StromaNKTert cells for 24 hours and were examined using Annexin-PI and BH3 profiling. […] Stromal co-culture of four CLL patient samples led to protection from apoptosis in untreated cells.

Chain of Class III PI3K hVPS34 (Q8NEB9 whole entry): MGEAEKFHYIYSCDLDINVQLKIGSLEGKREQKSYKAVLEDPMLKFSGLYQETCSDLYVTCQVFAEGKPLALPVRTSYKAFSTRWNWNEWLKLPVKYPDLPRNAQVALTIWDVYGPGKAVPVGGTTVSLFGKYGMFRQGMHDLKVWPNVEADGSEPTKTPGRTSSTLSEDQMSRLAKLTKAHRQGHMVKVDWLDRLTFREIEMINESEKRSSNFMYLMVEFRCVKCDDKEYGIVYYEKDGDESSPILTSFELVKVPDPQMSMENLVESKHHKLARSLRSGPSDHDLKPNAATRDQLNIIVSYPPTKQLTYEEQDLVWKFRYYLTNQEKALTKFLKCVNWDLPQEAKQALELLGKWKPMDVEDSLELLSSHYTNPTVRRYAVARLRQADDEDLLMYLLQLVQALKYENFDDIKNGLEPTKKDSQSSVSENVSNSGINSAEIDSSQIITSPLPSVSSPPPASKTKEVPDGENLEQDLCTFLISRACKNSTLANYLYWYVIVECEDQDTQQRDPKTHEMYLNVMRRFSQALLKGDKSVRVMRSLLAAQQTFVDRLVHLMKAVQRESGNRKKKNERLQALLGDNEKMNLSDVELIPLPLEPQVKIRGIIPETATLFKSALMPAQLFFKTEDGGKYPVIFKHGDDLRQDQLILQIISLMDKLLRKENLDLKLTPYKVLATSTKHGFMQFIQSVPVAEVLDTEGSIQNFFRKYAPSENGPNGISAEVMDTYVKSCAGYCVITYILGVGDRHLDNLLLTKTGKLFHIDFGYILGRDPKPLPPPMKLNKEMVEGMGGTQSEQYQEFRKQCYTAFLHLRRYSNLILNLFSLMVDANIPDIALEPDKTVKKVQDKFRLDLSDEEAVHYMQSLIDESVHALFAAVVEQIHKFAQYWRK

On to `CC(Nc1ncnc2[nH]cnc12)c1nc2ccc(F)cc2c(=O)n1-c1ccccc1` (stereo not drawn) [Compound II, 2-(1-(9H-purin-6-ylamino)ethyl)-6-fluoro-3-phenylquinazolin-4(3H)-one], for which the MM tumor growth result in data set [1] (10 mg/kg or 30 mg/kg orally twice a day, n=7) was “significantly reduced”. Also, the “CD31 positive cells and microvessel density” value in data set [1] (30 mg/kg) is listed as “significantly decreased”. In data set [1] (30 mg/kg, immunohistochemical and immunoblot analysis), the “p-Akt and p-PDK-1 in tumor” value was “significantly inhibited”. Besides, the body weight entry in data set [1] (mouse, in vivo) is on record as “did not affect body weight”. In data set [2], the “tumor growth (serum shuIL-6R)” value is given as “significantly inhibited tumor growth”.
For `Cn1cnc(N)c2ncnc1-2` [Compound 3-MA, 3-Methyladenine], in data set [3], the “cytotoxicity in INA-6 and LB cells” value is given as “No cytotoxicity”.
Usually IC50 stands for the concentration that gives 50% inhibition. Consider `Cn1c(=O)n(-c2ccc(C(C)(C)C#N)cc2)c2c3cc(-c4cnc5ccccc5c4)ccc3ncc21` [NVP-BEZ-235], for which the concentration for half-maximal inhibition (IC50) in data set [4] stood at 3 nM; in data set [5], 6 nM.
For `CN(C)CC[C@H](CSc1ccccc1)Nc1ccc(S(=O)(=O)NC(=O)c2ccc(N3CCN(Cc4ccccc4-c4ccc(Cl)cc4)CC3)cc2)cc1[N+](=O)[O-]` [ABT-737, reference compound], in data set [6], the “CLL cell viability in stromal co-culture, single agent” value is recorded as “profound stroma-mediated resistance”.
